Source: PMC6630832, “3-Vinylazetidin-2-Ones: Synthesis, Antiproliferative and Tubulin Destabilizing Activity in MCF-7 and MDA-MB-231 Breast Cancer Cells” (Pharmaceuticals, 2019)
pIC50: −log10 of the molar value. Where two headings read alike, the source gives them in different places.

Assays:
[1] = test system: Hs578Ts(i)8 cells; assay: Antiproliferative activity in invasive Hs578Ts(i)8 cells; format: cell-based
[2] = test system: MCF-7 cells; assay: Cell cycle analysis (PI flow cytometry); format: cell-based, human; conditions: for apoptotic cells (sub-G0G1): 72 h
Description: MCF-7 cells (adherent and detached) were treated with the appropriate concentration of compound 7s and incubated for the designated time. Cells were collected, trypsinised and centrifuged at 800× g for 15 min. Cells were washed twice with ice-cold PBS and fixed in ice-cold 70% ethanol overnight at −20 °C. Fixed cells were centrifuged at 800× g for 15 min and stained with 50 μg/mL of PI, containing 50 μg/mL of DNase-free RNase A, at 37 °C for 30 min.

[3] = test system: Hs578T breast cancer cell line; assay: Antiproliferative activity in Hs578T cells; format: cell-based; conditions: Homo sapiens, Hs-578T
[4] = test system: K562; assay: Antiproliferative activity in K562 leukemia cells; format: cell-based; conditions: Homo sapiens
[5] = test system: microtubule network of MCF-7 cells; assay: Immunofluorescence microscopy; format: cell-based, human; conditions: 100 nM, 16 h
Description: Confocal microscopy was used to study the effects of drug treatment on MCF-7 cytoskeleton. For immunofluorescence, MCF-7 cells were seeded at 1 × 10^5 cells/mL on eight chamber glass slides (BD Biosciences, 2350 Qume Dr, San Jose, CA, USA). Cells were either untreated or treated with vehicle [1% ethanol (v/v)], paclitaxel (1 μM), combretastatin A-4 (100 nM) or compound 7s (100 nM) for 16 h. Following treatment cells were gently washed in PBS, fixed for 20 min with 4% paraformaldehyde in PBS and permeabilised in 0.5% Triton X-100. Following washes in PBS containing 0.1% Tween (PBST), cells were blocked in 5% bovine serum albumin diluted in PBST. Cells were then incubated with mouse monoclonal anti-α-tubulin−FITC antibody (clone DM1A) (Sigma-Aldrich, 2033 Westport Center Dr, St. Louis, MO, USA) (1:100) for 2 h at room temperature. Following washes in PBST, cells were incubated with Alexa Fluor 488 dye (1:450) for 1 h at room temperature. Following washes in PBST, the cells were mounted in Ultra Cruz Mounting Media (Santa Cruz Biotechnology Inc., 10410 Finnell Street, Dallas, TX, USA) containing 4,6-diamino-2-phenolindol dihydrochloride (DAPI). Images were captured by Leica SP8 confocal microscopy with Leica application suite X software (Leica Microsystems CMS GmbH Am Friedensplatz 3 D-68165 Mannheim, Germany). All images in each experiment were collected on the same day using identical parameters. Experiments were performed on three independent occasions.

[6] = Cytotoxicity assay in primary murine mammary epithelial cells (alamar blue); format: cell-based, mouse; conditions: female, CD-1, mouse, primary mammary epithelial cells, 72 h; for viability at 72 h, 10 μM: murine epithelial cells, read-out: % Viable cells; for viability at 72 h: at the compound's IC50 in MCF-7 cells, read-out: % Viable cells at IC50
Description: (§1) As previously reported mammary glands from 14–18 day pregnant CD-1 mice were used as source and primary mammary epithelial cell cultures were prepared from these. The isolated mammary epithelial cells were seeded at two concentrations (25,000 cells/mL and 50,000 cells/mL). […] After 24 h, the cells were treated with 2 µL volumes of test compound 7s which had been pre-prepared as stock solutions in ethanol to furnish the concentration range of study, 1 nM–100 µM, and re-incubated for a further 72 h. Control wells contained the equivalent volume of the vehicle ethanol (1% v/v). The cytotoxicity was assessed using alamar blue dye.

[7] = test system: normal murine mammary epithelial cells; assay: as above; format: cell-based, mouse; conditions: for pIC50: Mus musculus, Epithelial cell, alamar blue; for pIC50 / % Viable cells at IC50: 72 h; for % Viable cells at IC50: at the compound's IC50 in MCF-7 cells, 25,000 cells/mL
Description: as §1

[8] = test system: colchicine-binding site of tubulin; assay: Colchicine-binding site assay (EBI cross-linking, Western blot) in MCF-7 cells; format: cell-based, human; conditions: 10 μM for 2 h, then EBI 100 μM for 1.5 h
Description: MCF-7 cells were seeded at a density of 5 × 10^4 cells/well in 6-well plates and incubated overnight. Cells were treated with vehicle control [ethanol (0.1% v/v)] or compound 7s (10 μM) for 2 h. After this time, selected wells were treated with N,N′-ethylene-bis(iodoacetamide)(EBI) (100 μM) (Santa Cruz Biotechnology Inc. 10410 Finnell Street, Dallas, Texas, USA) for 1.5 h. Following treatment, cells were twice washed with ice-cold PBS and lysed by addition of Laemmli buffer. Samples were separated by SDS-PAGE, trasnsferred to polyvinylidene difluoride membranes and probed with β-tubulin antibodies (Sigma-Aldrich, 2033 Westport Center Dr, St. Louis, MO, USA).

[9] = test system: MCF-7 cells; assay: Annexin V/PI apoptotic assay; conditions: for apoptotic cells (annexin-V positive): MCF-7, 72 h
Description: Apoptotic cell death was detected by flow cytometry using Annexin V and propidium iodide (PI). […] Cells were then harvested and prepared for flow cytometric analysis. Cells were washed in 1X binding buffer (20X binding buffer: 0.1M HEPES, pH 7.4; 1.4 M NaCl; 25 mM CaCl2 diluted in dH2O) and incubated in the dark for 30 min on ice in Annexin V-containing binding buffer [1:100]. Cells were then washed once in binding buffer and then re-suspended in PI-containing binding buffer [1:1000]. […] Four populations are produced during the assay Annexin V and PI negative (Q4, healthy cells), Annexin V positive and PI negative (Q3, early apoptosis), Annexin V and PI positive (Q2, late apoptosis) and Annexin V negative and PI positive (Q1, necrosis). Paclitaxel was used as a positive control for cell death

[10] = test system: NCI-H460; assay: NCI60 screen (SRB), Non-Small Cell Lung Cancer; format: cell-based; conditions: Homo sapiens
[11] = test system: A549/ATCC; assay: NCI60 screen (SRB), Non-Small Cell Lung Cancer; format: cell-based; conditions: Homo sapiens
[12] = test system: EKVX; assay: NCI60 screen (SRB), Non-Small Cell Lung Cancer; format: cell-based; conditions: Homo sapiens
[13] = test system: HOP-62; assay: NCI60 screen (SRB), Non-Small Cell Lung Cancer; format: cell-based; conditions: Homo sapiens
[14] = test system: NCI-H23; assay: NCI60 screen (SRB), Non-Small Cell Lung Cancer; format: cell-based; conditions: Homo sapiens
[15] = test system: HEK-293T cells; assay: Cytotoxicity in non-tumourigenic HEK-293T cells; format: cell-based, human
[16] = test system: HOP-92; assay: NCI60 screen (SRB), Non-Small Cell Lung Cancer; format: cell-based; conditions: Homo sapiens
[17] = Whole blood stability study; format: in vitro ADME; conditions: 37 °C
[18] = Homo sapiens, MCF7, 72 h, read-out: Viable

Structure (SMILES)	pIC50 [4]	effect on microtubule network [5]	viability at 72 h, 10 μM ([6]; 10 μM, 25,000 cells/mL)	viability at 72 h, 10 μM ([6]; 10 μM, 50,000 cells/mL)	viability at 72 h ([6]; 25,000 cells/mL)	viability at 72 h ([6]; 50,000 cells/mL)	pIC50 [7]	% Viable cells at IC50 [7]	β-tubulin-EBI adduct formation [8]	GI50 [10]	GI50 [11]	GI50 [13]	GI50 [14]	remaining after 6 h [17]	other results
COc1ccc(/C=C\c2cc(OC)c(OC)c(OC)c2)cc1O [CA-4, Combretastatin A-4, reference compound]	8.40	complete loss of microtubule formation	58%	75%	74%	92.1%	< 5.00	73.6%	EBI adduct formation is inhibited						pIC50 ([1]; invasive Hs578Ts(i)8 cells, read-out: IC50): 7.70; cells in G2M arrest ([2]; 100 nM, 48 h): 52%; sub-G0G1 population ([2]; 100 nM, 48 h): 9.4%; pIC50 ([3]; triple-negative Hs578T cells, read-out: IC50): 8.10; viability at 0.05 µM [9, 18]: 61.8%; apoptotic cells (annexin-V positive) ([9]; 50 nM): 34.6%
C=CC1C(=O)N(c2cc(OC)c(OC)c(OC)c2)C1c1ccc(OC)cc1 (stereo not shown) [Compound 7h, 4-(4-Methoxyphenyl)-1-(3,4,5-trimethoxyphenyl)-3-vinylazetidin-2-one]										0.036 µM	0.0413 µM	0.0369 µM	0.0245 µM		pIC50 [1]: 7.12; pIC50 [3]: 7.51; GI50 [12]: 0.0583 µM
C=CC1C(=O)N(c2cc(OC)c(OC)c(OC)c2)C1c1ccc(OC)c(O)c1 (stereo not shown) [Compound 7s, 4-[3-Hydroxy-4-methoxyphenyl]-1-(3,4,5-trimethoxyphenyl)-3-vinylazetidin-2-one]	7.59	complete loss of microtubule formation	60%	73.3%	93%	> 90%	< 5.00	93.1%	EBI adduct formation is inhibited						cells in G2M arrest ([2]; 10 nM, 24 h): 64%; apoptotic cells (sub-G0G1) ([2]; 10 nM): 14%; cells in G2M arrest ([2]; 100 nM, 24 h): 82%; apoptotic cells (sub-G0G1) ([2]; 100 nM): 26%; cytotoxicity against murine mammary epithelial cells [7]: minimal cytotoxicity; cytotoxicity against non-tumorigenic HEK-293T cells [15]: minimal cytotoxicity; pIC50 ([15]; Homo sapiens, non-tumourigenic HEK-293T cells): < 5.30; viability at 0.01 µM [9, 18]: 82.8%; viability at 0.1 µM [9, 18]: 64.5%; apoptotic cells (annexin-V positive) ([9]; 10 nM): About 13.6%; apoptotic cells (annexin-V positive) ([9]; 100 nM): 31.9%
C=CC1C(=O)N(c2cc(OC)c(OC)c(OC)c2)C1c1ccc(OC)c(N)c1 (stereo not shown) [Compound 7t, 4-(3-Amino-4-methoxyphenyl)-1-(3,4,5-trimethoxyphenyl)-3-vinylazetidin-2-one]										0.0355 µM	0.0392 µM	0.0412 µM	0.0387 µM		GI50 [16]: 0.0393 µM
C=CC1C(=O)N(c2cc(OC)c(OC)c(OC)c2)C1c1ccc(OC)c(OP(=O)(O)O)c1 (stereo not shown) [Compound 17b, 2-Methoxy-5-(1-(3,4,5-trimethoxyphenyl)-4-oxo-3-vinylazetidin-2-yl)phenyl dihydrogen phosphate]														62%	
CCC1C(=O)N(c2cc(OC)c(OC)c(OC)c2)C1c1ccc(OC)c(OP(=O)(O)O)c1 (stereo not shown) [Compound 17c, 5-(3-Ethyl-1-(3,4,5-trimethoxyphenyl)-4-oxoazetidin-2-yl)-2-methoxyphenyl dihydrogen phosphate]														34%	
